The test system of data set [1] is murine preadipocyte line (3T3-L1). Briefly: Assay of intraadipocyte cAMP increasing activity using murine preadipocyte line (3T3-L1) (Test Example 3, compounds of the Examples). The data set is classed as cell-based. The note with it: Table 14. As to the method: The intraadipocyte cAMP concentration-increasing activity of the above compound (I) was determined in an assay system using murine preadipocyte line 3T3-L1. Thus, 3T3-L1 preadipocytes were seeded onto a 96-well microtiter plate (10,000 cells/well) and cultured for 5-6 days until a confluent growth was formed. Thereafter, the adipocytes were further cultured for 72 hours. The test compound (I) (10^−5M, 10^−6M, 10^−7M, 10^−8M, and 10^−9M) was then added and the plate was allowed to sit at 37° C. for 40 minutes. The cells were washed with 3 portions of phosphate buffer at 4° C. (100 μl/well). Then, 0.1 N hydrochloric acid was added and the cells were denatured at 95° C. for 10 minutes. From each well, 25 μl was aspirated and dissolved in 75 μl of the assay a buffer included in Cyclic AMP Enzyme Immunoassay Kit (Kayman Chemical Company, USA). Using a 50 μl portion as the sample, cAMP was assayed using the above-mentioned Kit. Thus, using a 96-well microtiter plate precoated with anti-rabbit IgG mouse antibody, the above sample (50 μl) as well as the Cyclic AMP Tracer (50 μl) and Cyclic AMP Rabbit Antibody (50 μl) from the Kit were added and the plate was incubated at room temperature for 18 hours. After asperation, the plate was washed with 4 portions of the wash buffer (400 μl/well). Then, 200 μl of the color reagent included in the Kit was added to each well and the plate was incubated at room temperature with'shaking for 60 minutes. After completion of the reaction, the absorbance was measured at 405 nm to quantitate the cAMP.
Each value is the mean result of 4 experiments. The test for statistical significance against the CAMP concentration of the control experiment (the test compound not added) was carried out by the known ANOVA. (* p<05 vs. control)
Using the compounds obtained in Examples 1 through 130, as well as their salts, their intraadipocyte cAMP increasing activities were assayed by the same procedure as in Test Example 1.

Where [2] appears, read: concentration of test compound 10^−5M.
[3] abbreviates: concentration of test compound 10^−6M.
The mark [4] stands for this setting: concentration of test compound 10^−7M.
Setting [5] is: concentration of test compound 10^−8M.
[6] abbreviates: concentration of test compound 10^−9M.

Counter-ions that a name gives are not always drawn. Marks after values point to notes of the source that are not given here.

In the case of `Cc1ccccc1CN1CCc2ccc(C(=O)CCCC3CCN(Cc4ccccc4C(N)=O)CC3)cc2CC1` (as salt: hydrochloride) [Example 254, 2-[[4-[4-[3-[(2-Methylphenyl)methyl]-2,3,4,5-tetrahydro-1H-3-benzazepin-7-yl]-4-oxobutyl]-1-piperidinyl]methyl]benzamide Dihydrochloride], the melting point (commonly the temperature, or range, at which the solid turns liquid) is 201 to 220 °C (dec.).

`Cc1ccccc1CN1CCc2ccc(C(=O)CCCC3CCNCC3)cc2CC1` (as salt: hydrochloride) [Example 255, 1-[3-(2-Methylphenyl)methyl]-2,3,4,5-tetrahydro-1H-3-benzazepin-7-yl]-4-(4-piperidinyl)-1-butanone Dihydrochloride]: the melting point is 192 to 203 °C (dec.).

As to `Cc1ccccc1CN1CCc2ccc(C(=O)CCCC3CCN(Cc4ccccc4C(=O)N4CCN(C)CC4)CC3)cc2CC1` (as salt: hydrochloride) [Example 313, 4-[1-[[2-[(4-methyl-1-pipiperazinyl)carbonyl]phenyl]methyl]-4-piperidinyl]-1-[3[(2-methylphenyl)methyl]-2,3,4,5-tetrahydro-1H-3-benzazepin-7-yl]-1-butanone Trihydrochloride], the melting point is 186 to 193 °C (dec.).

Take `Cc1ccccc1CN1CCc2ccc(C(=O)CCCC3CCN(Cc4ccccc4C(=O)N4CCOCC4)CC3)cc2CC1` (as salt: hydrochloride) [Example 314, 1-[3-[(2-Methylphenyl)methyl]-2,3,4,5-tetrahydro-1H-3-benzazepin-7-yl]-4-[1-[[2-(morpholinocarbonyl)phenyl]methyl]-4-piperidinyl]-1-butanone Dihydrochloride]: the melting point lay within 168 to 172 °C.

`CC(=O)Nc1ccccc1CN1CCc2ccc(C(=O)CCCC3CCN(Cc4ccccc4Cl)CC3)cc2CC1` (as salt: hydrochloride) [Example 315, N-[2-[[7-[4-[1-[(2-chlorophenyl)methyl]-4-piperidinyl]butanoyl]-2,3,4,5-tetrahydro-1H-3-benzazepin-3-yl]methyl]phenyl]acetamide Dihydrochloride]: the melting point lay in the range of 138 to 144 °C.

`Nc1ccccc1CN1CCc2ccc(C(=O)CCCC3CCN(Cc4ccccc4Cl)CC3)cc2CC1` (as salt: hydrochloride) [Example 316, 1-[3-[(2-Aminophenyl)methyl]-2,3,4,5-tetrahydro-1H-3-benzazepin-7-yl]-4-[1-[(2-chlorophenyl)methyl]-4-piperidinyl]-1-butanone Trihydrochloride]: the melting point was 155 to 164 °C (dec.).

With `O=C(O)c1cccc(CN2CCC(CCCC(=O)c3ccc4c(c3)CCN(Cc3ccccc3)CC4)CC2)c1` (as salt: salt) [Example 158, 3-[[4-[4-[3-(Phenylmethyl)-2,3,4,5-tetrahydro-1H-benzazepin-7-yl]-4-oxobutyl)-1-piperidinyl]methyl]benzoic acid triethylamine Salt], the melting point lay within 150 to 158 °C.

For the compound `O=C(CCC1CCNCC1)c1ccc2c(c1)CCN(Cc1ccccc1)CC2` [Example 24, 1-[3-(phenylmethyl)-2,3,4,5-tetrahydro-1H-3-benzazepin-7-yl]-3-(4-piperidinyl)-1-propanone], the melting point lay in the range of 134 to 137 °C.

Regarding `CC(=O)N1CCC(CCC(=O)c2ccc3c(c2)CCN3c2ccncc2)CC1` [Example 61, 3-(1-Acetyl-4-piperidinyl)-1-[1-(4-pyridyl)-2,3-dihydroindol-5-yl]-1-propanone], the melting point is 157 to 158 °C.

Turning to `CC(=O)N1CCC(CCC(=O)c2cc3c4c(c2)CCN4C(=O)CC3)CC1` [Example 66, 8-[3-(1-Acetyl-4-piperidinyl)-1-oxopropyl]-1,2,5,6-tetrahydro-4H-pyrrolo[3,2,1-ij]quinolin-4-one], the melting point lay within 160 to 161 °C.

As for `CC(=O)N1CCC(CCC(=O)c2ccc3c4c2CCCC4CN3C(C)=O)CC1` (centres unmarked) [Example 67, 3-(1-Acetyl-4-piperidinyl)-1-(1-acetyl-1,2,2a,3,4,5-hexahydrobenz[cd]indol-6-yl)-1-propanone], the melting point lay in the range of 130 to 132 °C.

`CC(=O)N1CCC(CCC(=O)c2ccc3c(c2)CNc2ccccc2CC3)CC1` [Example 69, 3-(1-Acetyl-4-piperidinyl)-1-(5,6,11,12-tetrahydrodibenz[bf]azocin-8-yl)-1-propanone] displayed a melting point of 153 to 155 °C.

`CC(=O)N1CCC(CCCC(=O)c2ccc3c(c2)CCN(Cc2ccccc2C)CC3)CC1` [Example 125, 4-(1-Acetyl-4-piperidinyl)-1-[3-[(2-methylphenyl)methyl]-2,3,4,5-tetrahydro-1H-3-benzazepin-7-yl]-1-butanone]: the melting point lay in the range of 94 to 95 °C.

As to `Cc1ccccc1CN1CCc2ccc(C(=O)CCCC3CCN(Cc4ccccc4C)CC3)cc2CC1` [Example 127, 4-[1-[(2-Methylphenyl)methyl]-4-piperidinyl]-1-[3-[(2-methylphenyl)methyl]-2,3,4,5-tetrahydro-1H-3-benzazepin-7-yl]-1-butanone Dihydrochloride], the cAMP in data set [1] (setting [2]) is 554.0* pmol/ml; in data set [1] (setting [3]) it was 100.0* pmol/ml; in data set [1] (setting [4]), 10.1* pmol/ml; in data set [1] (setting [5]), 4.7 pmol/mL; in data set [1] (setting [6]), 3.6 pmol/mL.

On to `Cc1ccccc1CN1CCc2ccc(C(=O)CCCC3CCN(Cc4cccc(Cl)c4)CC3)cc2CC1` [Example 130], for which the cAMP is 430.6* pmol/ml in data set [1] (setting [2]); 23.5* pmol/ml in data set [1] (setting [3]); 5.7* pmol/ml in data set [1] (setting [4]); 4.5 pmol/mL in data set [1] (setting [5]); 3.4 pmol/mL in data set [1] (setting [6]).

Regarding `O=C(CCCC1CCN(Cc2cccc(O)c2)CC1)c1ccc2c(c1)CCN(Cc1ccccc1)CC2` [Example 157, 4-[1-[(3-Hydroxyphenyl)methyl]-4-piperidinyl]-1-[3-(phenylmethyl)-2,3,4,5-tetrahydro-1H-3-benzazepin-7-yl]-1-butanone], the melting point lay within 88 to 94 °C.

Turning to `O=C(O)c1ccc(CN2CCC(CCCC(=O)c3ccc4c(c3)CCN(Cc3ccccc3)CC4)CC2)cc1` [Example 183, 4-[[4-[4-[3-(Phenylmethyl)-2,3,4,5-tetrahydro-1H-3-benzazepin-7-yl]-4-oxobutyl]-1-piperidinyl]methyl]benzoic Acid], the melting point was in the range of 165 to 176 °C.

`Cc1ccccc1CN1CCc2ccc(C(=O)CCCC3CCN(Cc4ccccc4C(=O)O)CC3)cc2CC1` [Example 253, 2-[[4-[4-[3-[(2-Methylphenyl)methyl]-2,3,4,5-tetrahydro-1H-3-benzazepin-,7-yl]-4-oxobutyl]-1-piperidinyl]methyl)benzoic Acid] gave a melting point of 129 to 132 °C.

Consider `Cc1ccccc1CN1CCc2ccc(C(=O)CCCC3CCN(Cc4cccc(C(=N)N)c4)CC3)cc2CC1` [Example 260], for which the melting point was in the range of 150 to 152 °C.

For the compound `N#Cc1ccccc1CN1CCc2ccc(C(=O)CCCC3CCN(Cc4ccccc4Cl)CC3)cc2CC1` [Example 265, 4-[1-[(2-Chlorophenyl)methyl]-4-piperidinyl]-1-[3-[(2-cyanophenyl)methyl]-2,3 4,5-tetrahydro-1H-3-benzazepin-7-yl]-1-butanone], the melting point is 103 to 104 °C.

Turning to `N#Cc1cccc(CN2CCc3ccc(C(=O)CCCC4CCN(Cc5ccccc5Cl)CC4)cc3CC2)c1` [Example 267, 4-[1-[(2-Chlorophenyl)methyl]-4-piperidinyl]-1-[3-[(3-cyanophenyl)methyl]-2,3,4,5-tetrahydro-1H-3-benzazepin-7-yl]-1-butanone], the melting point was 121 to 122 °C.
